In patent US10487116B2, “Immunotherapy against several tumors, such as lung cancer, including NSCLC” (IMMATICS BIOTECHNOLOGIES GMBH, priority 2013, dated 2019):
Where two headings read alike, the source gives them in different places.

Test system: CD8+ T cells
Assay: In vitro T-cell priming assay (aAPCs loaded with peptide/MHC and anti-CD28, pMHC multimer readout)
Type: cell-based, human
Settings: for Wells: positive wells
Description: In order to obtain information regarding the immunogenicity of the TUMAPs of the present invention, we performed investigations using an in vitro T-cell priming assay based on repeated stimulations of CD8+ T cells with artificial antigen presenting cells (aAPCs) loaded with peptide/MHC complexes and anti-CD28 antibody.
In order to perform in vitro stimulations by artificial antigen presenting cells loaded with peptide-MHC complex (pMHC) and anti-CD28 antibody, we first isolated CD8+ T cells from fresh HLA-A*02 leukapheresis products via positive selection using CD8 microbeads (Miltenyi Biotec, Bergisch-Gladbach, Germany) of healthy donors obtained from the Transfusion Medicine Tuebingen, Germany, after informed consent.
Isolated CD8+ lymphocytes or PBMCs were incubated until use in T-cell medium (TCM) consisting of RPMI-Glutamax (Invitrogen, Karlsruhe, Germany) supplemented with 10% heat inactivated human AB serum (PAN-Biotech, Aidenbach, Germany), 100 U/ml Penicillin/100 μg/ml Streptomycin (Cambrex, Cologne, Germany), 1 mM sodium pyruvate (CC Pro, Oberdorla, Germany), 20 μg/ml Gentamycin (Cambrex). 2.5 ng/ml IL-7 (PromoCell, Heidelberg, Germany) and 10 U/ml IL-2 (Novartis Pharma, Nurnberg, Germany) were also added to the TCM at this step.
Generation of pMHC/anti-CD28 coated beads, T-cell stimulations and readout was performed in a highly defined in vitro system using four different pMHC molecules per stimulation condition and 8 different pMHC molecules per readout condition.
All pMHC complexes used for aAPC loading and cytometric readout were derived from UV-induced MHC ligand exchange (Rodenko et al., 2006) with minor modifications. In order to determine the amount of pMHC monomer obtained by exchange we performed streptavidin-based sandwich ELISAs according to (Rodenko et al., 2006).
The purified co-stimulatory mouse IgG2a anti human CD28 Ab 9.3 (Jung et al., 1987) was chemically biotinylated using Sulfo-N-hydroxysuccinimidobiotin as recommended by the manufacturer (Perbio, Bonn, Germany). Beads used were 5.6 μm diameter streptavidin coated polystyrene particles (Bangs Laboratories, Ill., USA).
pMHC used for positive and negative control stimulations were A*0201/MLA-001 (peptide […] from modified Melan-A/MART-1) and A*0201/DDX5-001 ([…] from DDX5), respectively.
800.000 beads/200 μl were coated in 96-well plates in the presence of 4×12.5 ng different biotin-pMHC, washed and 600 ng biotin anti-CD28 were added subsequently in a volume of 200 μl. Stimulations were initiated in 96-well plates by co-incubating 1×10^6 CD8+ T cells with 2×10^5 washed coated beads in 200 μl TCM supplemented with 5 ng/ml IL-12 (PromoCell) for 3-4 days at 37° C. Half of the medium was then exchanged by fresh TCM supplemented with 80 U/ml IL-2 and incubating was continued for 3-4 days at 37° C. This stimulation cycle was performed for a total of three times. For the pMHC multimer readout using 8 different pMHC molecules per condition, a two-dimensional combinatorial coding approach was used as previously described (Andersen et al., 2012) with minor modifications encompassing coupling to 5 different fluorochromes. Finally, multimeric analyses were performed by staining the cells with Live/dead near IR dye (Invitrogen, Karlsruhe, Germany), CD8-FITC antibody clone SK1 (BD, Heidelberg, Germany) and fluorescent pMHC multimers. For analysis, a BD LSRII SORP cytometer equipped with appropriate lasers and filters was used. Peptide specific cells were calculated as percentage of total CD8+ cells. Evaluation of multimeric analysis was done using the FlowJo software (Tree Star, Oreg., USA). In vitro priming of specific multimer+CD8+ lymphocytes was detected by comparing to negative control stimulations.

[1] = in vitro immunogenicity, trifluoro-acetate salts of the peptides
[2] = in vitro immunogenicity, responding healthy donors, trifluoro-acetate salts of the peptides

Substance | Wells [1] | Donors [2] | Donors
16 (TVIGFLLPFA; listed as Homo sapiens) [compound 16] | + (<20% = +) | ++ (20%-49% = ++) | 
53 (YLPHAPPFA; listed as Homo sapiens) [compound 53] | ++ (20%-49% = ++) | ++ (20%-49% = ++) | 
88 (SLLESNKDLLL; listed as Homo sapiens) [compound 88] | + (<20% = +) | ++ (20%-49% = ++) | 
37 (VLAPLFVYL; listed as Homo sapiens) [compound 37] | + (<20% = +) | ++++ (>70 = ++++) | 100%
68 (YVYQNNIYL; listed as Homo sapiens) [compound 68] | + (<20% = +) | + (<20% = +) | 
8 (SMSGYDQVL; listed as Homo sapiens) [compound 8] | + (<20% = +) | ++ (20%-49% = ++) | 
56 (SLYKGLLSV; listed as Homo sapiens) [compound 56] | ++ (20%-49% = ++) | ++++ (>70 = ++++) | 100%
40 (GLTDNIHLV; listed as Homo sapiens) [compound 40] | + (<20% = +) | ++ (20%-49% = ++) | 
59 (ILVSWLPRL; listed as Homo sapiens) [compound 59] | + (<20% = +) | +++ (50%-70%, +++) | 
22 (FLIPIYHQV; listed as Homo sapiens) [compound 22] | + (<20% = +) | +++ (50%-70%, +++) | 
43 (ALFPHLLQPV; listed as Homo sapiens) [compound 43] | + (<20% = +) | +++ (50%-70%, +++) | 
44 (NLLAEIHGV; listed as Homo sapiens) [compound 44] | + (<20% = +) | ++ (20%-49% = ++) | 
65 (KVLEILHRV; listed as Homo sapiens) [compound 65] | ++ (20%-49% = ++) | +++ (50%-70%, +++) | 
72 (KLLTEVHAA; listed as Homo sapiens) [compound 72] | + (<20% = +) | +++ (50%-70%, +++) | 
80 (SLFGNSGILENV; listed as Homo sapiens) [compound 80] | + (<20% = +) | ++ (20%-49% = ++) | 
81 (ALYGRLEVV; listed as Homo sapiens) [compound 81] | + (<20% = +) | ++ (20%-49% = ++) | 
73 (FLLDGSANV; listed as Homo sapiens) [compound 73] | + (<20% = +) | ++ (20%-49% = ++) | 
48 (GLIEIISNA; listed as Homo sapiens) [compound 48] | + (<20% = +) | + (<20% = +) | 
47 (GVLENIFGV; listed as Homo sapiens) [compound 47] | + (<20% = +) | ++ (20%-49% = ++) | 
54 (KLVEFDFLGA; listed as Homo sapiens) [compound 54] | + (<20% = +) | ++ (20%-49% = ++) | 
11 (VLLPVEVATHYL; listed as Homo sapiens) [compound 11] | ++ (20%-49% = ++) | ++++ (>70 = ++++) | 100%
70 (KILEDVVGV; listed as Homo sapiens) [compound 70] | + (<20% = +) | +++ (50%-70%, +++) | 
45 (AIMGFIGFFV; listed as Homo sapiens) [compound 45] | + (<20% = +) | + (<20% = +) | 
66 (KIQEILTQV; listed as Homo sapiens) [compound 66] | + (<20% = +) | +++ (50%-70%, +++) | 
15 (KLAVALLAA; listed as Homo sapiens) [compound 15] | ++ (20%-49% = ++) | ++ (20%-49% = ++) | 
63 (SLAGDVALQQL; listed as Homo sapiens) [compound 63] | + (<20% = +) | ++ (20%-49% = ++) | 
